In patent publication US6241963A, “Dopamine and serotonin transporter ligands and imaging agents” (priority 1996, dated 2001):
“And” between values parts separate entries of the source, which are not always exact repeats. Equal entries are not always repeated. Where two headings read alike, the source gives them in different places.

Legend:
dopamine transporters [1] = molecular target: T1, dopamine transporters (Rattus norvegicus, UniProt P23977); type: in vivo, Male Sprague-Dawley rats; conditions: rats, iv
T1 sequence (P23977 whole entry): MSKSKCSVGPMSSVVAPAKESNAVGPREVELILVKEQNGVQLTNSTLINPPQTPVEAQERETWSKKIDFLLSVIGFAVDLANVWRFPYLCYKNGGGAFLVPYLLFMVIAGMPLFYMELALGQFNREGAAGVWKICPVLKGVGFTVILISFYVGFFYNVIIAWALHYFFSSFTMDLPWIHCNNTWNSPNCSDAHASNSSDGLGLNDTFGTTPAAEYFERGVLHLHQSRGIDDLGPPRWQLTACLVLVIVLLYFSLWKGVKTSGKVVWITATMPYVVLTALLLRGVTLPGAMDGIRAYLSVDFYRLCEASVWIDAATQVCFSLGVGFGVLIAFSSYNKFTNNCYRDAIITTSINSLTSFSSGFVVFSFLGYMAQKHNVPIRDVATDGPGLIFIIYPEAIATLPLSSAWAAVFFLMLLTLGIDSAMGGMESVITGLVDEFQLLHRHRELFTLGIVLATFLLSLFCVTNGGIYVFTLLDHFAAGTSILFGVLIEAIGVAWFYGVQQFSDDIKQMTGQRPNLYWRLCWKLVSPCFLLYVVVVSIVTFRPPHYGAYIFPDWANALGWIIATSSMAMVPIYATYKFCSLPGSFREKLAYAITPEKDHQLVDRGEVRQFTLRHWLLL
Method: For dopamine transporter imaging agents, the target area of the brain is the striatum, where dopamine transporters are highly concentrated. The cerebellum region is suitable for use as the background region, because it has no dopamine transporters. The specific uptake is measured by the ratio of % dose/gram of striatum divided by % dose/gram of cerebellum (ST/CB ratio)--the higher the value, the better the specific uptake, and the more promising as a dopamine transporter imaging agent.
(§1) Regional brain distribution in rats was obtained after an injection of 1.19a, 1.19b, 1.20a, 1.20b or 1.21. Samples from different brain regions (cortex, striatum, hippocampus, and cerebellum) were dissected, weighed and counted, and the percentage dose per gram of sample was calculated by comparing the sample counts with the count of the diluted initial dose. The uptake ratio of each region was obtained by dividing the percentage dose per gram of that region by that of the cerebellum. For blocking studies, rats were injected with either β-CIT or haloperidol (iv, 1 mg/Kg) 5 min prior to injection of 1.19a. The rats were dissected and brain tissue samples were counted as described above. The specific uptake of the compound was expressed as ratio of ST/CB (% dose/g of striatum divided by the same of cerebellum).
(§2) The major criteria for determining the potential usefulness of in vivo dopamine transporter imaging agents are based on an animal biodistribution study. In this case, rats were used as an animal model. After an intravenous injection of the Tc-99m labeled compounds, the values of initial brain uptake (% dose/whole organ) at 2 minutes post intravenous injection are used to measure the ability to penetrate the intact blood-brain barrier. Compounds displaying higher brain uptake are the better agents (minimum requirement >0.1% dose in brain). The second criteria is the specific uptake in the striatum region of the brain, where dopamine transporters are located. The uptake value (% dose/gram) of the striatum (ST) is divided by the background area, cerebellum (CB; essentially devoid of dopamine transporter); the ratio of ST/CB is an indicator for specific uptake (minimum requirement for ST/CB >1.5). Five structurally similar tropane derivatives were examined in this biological study. (Tables 1.1 to 1.4).
as §1, with “3.24 to 3.34.” for “1.19a, 1.19b, 1.20a, 1.20b or 1.21.”, “3.25.” for “1.19a.”, “above.” for “above. The specific uptake of the compound was expressed as ratio of ST/CB (% dose/g of striatum divided by the same of cerebellum).”

[2] = type: in vivo, Male Sprague-Dawley rats
Method: Male Sprague-Dawley rats (225-300 g) allowed free access to food and water were used for in vivo biodistribution studies. Kung, 1984, supra; Kung, 1985, supra. While under ether anesthesia, 0.2 mL of a saline solution containing 1.19a, 1.19b, 1.20a, 1.20b or 1.21 (50-100 μCi) was injected directly into the femoral vein of rats, and the rats were sacrificed by cardiac excision at various time points post-injection. The organs of interest were removed and weighed, and the radioactivity was counted with an automatic gamma counter (Packard 5000). The percentage dose per organ was calculated by a comparison of the tissue counts to suitably diluted aliquots of the injected material. Total activities of blood and muscle were calculated under the assumption that they were 7% and 40% of the total body weight, respectively.
as §2
Male Sprague-Dawley rats (225-300 g) that were allowed free access to food and water were used for in vivo biodistribution studies. (Kung, 1984, supra; Kung, 1985, supra). While under halothane anesthesia, 0.2 mL of a saline solution containing 3.24 to 3.34 ([…]) was injected directly into the femoral vein of rats, and they were sacrificed by cardiac excision at various time points post-injection. The organs of interest were removed and weighed, and the radioactivity was counted with an automatic gamma counter (Packard 5000). The percentage dose per organ was calculated by a comparison of the tissue counts to suitably diluted aliquots of the injected material. Total activities of blood and muscle were calculated under the assumption that they were 7% and 40% of the total body weight, respectively.

[3] = Partition coefficient between 1-octanol (n-octanol) and buffer; type: physicochemical; conditions: for Partition coefficient (P.C.), 1-octanol/pH 7.0 buffer: 1-octanol/pH 7.0 phosphate buffer
Method: (§3) Partition coefficients were measured by mixing each Tc-99m compound with 3 g each of 1-octanol and buffer (pH 7.0 or 7.4, 0.1 M phosphate) in a test tube. The test tube was vortexed for 3 minutes at room temperature, then centrifuged for 5 minutes. Two weighed samples (0.5 g each) from the 1-octanol and buffer layers were counted in a well counter. The partition coefficient was determined by calculating the ratio of cpm/g of octanol to that of buffer. Samples from the octanol layer were repartitioned until consistent partition coefficient values were obtained. The measurement was repeated 3 times.
as §3, with “The partition coefficient was measured” for “Partition coefficients were measured”, “mixing the” for “mixing each”, “3 min” for “3 minutes”

[4] = molecular target: T2, rat striatal homogenates (dopamine transporter) (Rattus norvegicus, UniProt P23977); test: In vitro binding with rat striatal homogenates using [^125 I]IPT as the ligand; conditions: for Ki: [^125 I]IPT as ligand
T2 construct: from tissue; host or cells: rat striatum homogenate
T2 sequence (P23977 whole entry): as above

dopamine transporters [5] = molecular target: T1, dopamine transporters; test: In vitro autoradiography of rat brain sections; type: binding, Male Sprague-Dawley rats; conditions: rat brain coronal sections
Method: Male Sprague-Dawley rats ([…]) were sacrificed by decapitation, and the brains were removed, placed in OTC embedding medium (Miles Laboratory, Elkhart, Ind.) frozen in powdered dry ice. After equilibration to -15° C., 20 μm coronal sections were sliced on a cryostat (Hacker Instruments, Fairfield, N.J.), thaw mounted onto gelatin-coated slides, desiccated at 4° C. for 3 hours and kept at -70° C. until use. Prior to the experiment, the slides were dried at room temperature and preincubated for 30 minutes in buffer containing 50 mM Tris-HCl (pH 7.4, 120 mM NaCl). The slides were then incubated for 2 hours in preincubation buffer and the [^99m Tc] compound 3.25 (385,000 cpm/200 μL) in a coplan jar, washed for 1 hour in cold Tris buffer, with one change of buffer, dipped in ice-cold water to remove buffer salts and allowed to dry at room temperature. Nonspecific binding was determined in the presence of 1 μM IPT. These slides were simultaneously exposed to DuPont x-ray film in an autoradiographic cassette for 18 hours. The exposed film was developed with a Kodak automatic film processor.

dopamine transporters [6] = conditions: cited from earlier work

| Compound | ST/CB ratio, 60 min (dopamine transporters [1]) | Brain uptake, 2 min ([2]; rats, iv, 2 min) [% dose/organ] | Brain uptake, 60 min ([2]; rats, iv) [% dose/organ] | Partition coefficient (P.C.), 1-octanol/pH 7.0 buffer [3] | Ki [4] [nM] | further results |
| --- | --- | --- | --- | --- | --- | --- |
| CN1[C@H]2CC[C@@H]1[C@@H](C(=O)[N+]13CC[S][99Tc-]14(=[O])[S]CC[N]4CC3)[C@@H](c1ccc(F)cc1)C2 (stereo partly shown) [Compound 1.20b] | 1.92 and 1.92 ± 0.28 | 0.31 ± 0.09 | 0.07 ± 0.010 | 99-1818 and 104 | – | – |
| COC(=O)[C@H]1[C@@H](c2ccc(Cl)cc2)C[C@@H]2CC[C@H]1N2CC=CI [IPT, N-(3-iodopropen-2-yl)-2β-carbomethoxy-3β-(4-chlorophenyl)tropane, reference compound] | – | – | – | – | – | Kd ([4]; data not shown, read-out: Kd of the radioligand [^125 I]IPT): 0.2 nM; Autoradiographic regional labeling (dopamine transporters [5]): almost identical regional labeling pattern; Time for reaching optimal uptake ratio / equilibrium (dopamine transporters [6]; basal ganglia versus frontal cortex): less than one hour; Literature binding / localization / biodistribution, in words (dopamine transporters [6]; in vivo): much higher binding affinity and selectivity to dopamine reuptake sites |
| CN1[C@H]2CC[C@@H]1[C@@H](C[N+]13CC[S][99Tc-]14(=[O])[S]CC[N]4CC3)[C@@H](c1ccc(F)cc1)C2 (stereo partly shown) [Compound 1.20a] | 2.18 and 2.18 ± 0.32 | 0.37 ± 0.09 | 0.098 ± 0.014 | 99-1818 and 99 | – | – |
| 2b-{oxo[N,N'-bis-(2'-mercaptoethyl)-ethylenediaminato)]rhenium (V)-methylamino}-3b-(4-chlorophenyl)tropane [Compound 1.22] | – | – | – | – | 14 | – |
| COC(=O)[C@H]1[C@@H](c2ccc(Cl)cc2)C[C@@H]2CC[C@H]1N2CC[S][Re-]12(=[O])[S]CC[N+]1(C)CC[S]2 (stereo partly shown) [Compound 3.23] | – | – | – | – | 0.3 | – |
| CN1[C@H]2CC[C@@H]1[C@@H](C[N+]13CC[S][99Tc-]14(=[O])[S]CC[N]4C(=O)C3)[C@@H](c1ccc(Cl)cc1)C2 (stereo partly shown) [Compound 1.21] | 1.17 ± 0.010 | 0.11 ± 0.02 | – | 1818 | – | Brain uptake and specific striatal uptake, in words (dopamine transporters [1]): lowest brain uptake; ST/CB ratio, 30 min (dopamine transporters [1]): 1.17; ST/CB ratio, 60 min (dopamine transporters [1]; listed as 21): 1.17; Brain uptake, 60 min, footnote c ([2]; data from rats sacrificed at 30 minutes): 0.07 ± 0.014 % dose/organ; Brain uptake lower than 1.19a and 1.19b ([2]; rats, iv, 2 min): at least 300%; Brain uptake, 30 min ([2]; rats, iv): 0.070 ± 0.014 % dose/organ; Partition coefficient / lipophilicity, comparison in words [3]: almost tenfold higher partition coefficient |
| CN1[C@H]2CC[C@@H]1[C@@H](CN(CCS)CCNCCS)[C@@H](c1ccc(Cl)cc1)C2 [Compound 1.16a] | – | – | – | – | 7 | – |
| CN1[C@H]2CC[C@@H]1[C@@H](C(=O)[N+]13CC[S][99Tc-]14(=[O])[S]CC[N]4CC3)[C@@H](c1ccc(Cl)cc1)C2 (stereo partly shown) [Compound 1.19b] | 2.78 and 2.78 ± 0.32 | 0.39 ± 0.12 | 0.11 ± 0.02 | 230 | – | ST/CB ratio, 30 min (dopamine transporters [1]): 2.78; Brain uptake, 30 min ([2]; rats, iv): 0.21 ± 0.03 % dose/organ |
